The molecules below were run against HCV NS5B polymerase (Hepatitis C virus genotype 1b, UniProt P26663) (assay: biochemical). Conditions: 20 nM enzyme, 0.6 μM GTP, 250 nM 5′biotinylated oligo (rG13)/poly rC, 75 min at 28° C.
Method: Compounds were tested for HCV polymerase inhibition. Assays were performed in a 96-well streptavidin-coated FlashPlate using 20 nM enzyme, 0.5 μCi of [α-^33P]GTP, 0.6 μM GTP, and 250 nM 5′biotinylated oligo (rG13)/poly rC in 20 mM Tris-HCl, pH 7.5, 5 mM MgCl2, 5 mM dithiothreitol, 0.1 g/L bovine serum albumin, and 100 U/mL RNAse inhibitor. The reaction was stopped by aspiration after 75 min at 28° C. and the plate was washed several times. After washing and drying the plate, incorporated radioactivity was counted using a Microbeta scintillation counter. IC50 values were calculated relative to the uninhibited control and inhibition data were fitted to a 4-parameter IC50 equation.

HCV NS5B polymerase, sequence (P26663 2420-3010): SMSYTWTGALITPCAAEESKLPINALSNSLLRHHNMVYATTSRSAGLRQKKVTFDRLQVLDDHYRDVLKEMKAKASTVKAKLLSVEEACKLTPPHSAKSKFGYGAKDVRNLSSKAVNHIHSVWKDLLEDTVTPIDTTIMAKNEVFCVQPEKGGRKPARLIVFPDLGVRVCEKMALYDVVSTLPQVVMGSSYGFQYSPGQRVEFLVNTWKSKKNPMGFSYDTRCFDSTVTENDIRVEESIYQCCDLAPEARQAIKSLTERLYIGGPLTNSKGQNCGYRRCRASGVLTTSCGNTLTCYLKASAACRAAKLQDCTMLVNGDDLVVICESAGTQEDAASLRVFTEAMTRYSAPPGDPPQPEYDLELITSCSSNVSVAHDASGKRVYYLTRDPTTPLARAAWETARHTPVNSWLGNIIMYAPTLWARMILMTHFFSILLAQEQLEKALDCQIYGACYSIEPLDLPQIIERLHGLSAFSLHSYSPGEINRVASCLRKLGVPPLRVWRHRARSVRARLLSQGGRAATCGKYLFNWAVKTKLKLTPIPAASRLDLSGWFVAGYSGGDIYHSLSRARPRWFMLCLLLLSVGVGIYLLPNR

SMILES | IC50 [nM]
CC1(c2ccccc2)CN(C2CCC2)C(=O)C(C2=NS(=O)(=O)c3cc(NS(C)(=O)=O)ccc3N2)=C1O (centres unmarked) [Example 32, N-[3-(1-Cyclobutyl-4-hydroxy-5-methyl-2-oxo-5-phenyl-1,2,5,6-tetrahydro-pyridin-3-yl)-1,1-dioxo-1,4-dihydro-1λ^6-benzo[1,2,4]thiadiazin-7-yl]-methanesulfonamide] | 1000 to 4000
CC(C)CCN1CC(C)(C)C(O)=C(C2=NS(=O)(=O)c3cc(NS(C)(=O)=O)ccc3N2)C1=O [Example 11, N-{3-[4-Hydroxy-5,5-dimethyl-1-(3-methyl-butyl)-2-oxo-1,2,5,6-tetrahydro-pyridin-3-yl]-1,1-dioxo-1,4-dihydro-1λ^6-benzo[1,2,4]thiadiazin-7-yl}-methanesulfonamide] | 100 to 1000
CC(C)CCC1(CO)CN(C2CCCC2)C(=O)C(C2=NS(=O)(=O)c3cc(NS(C)(=O)=O)ccc3N2)=C1O (centres unmarked) [Example 54, N-{3-[1-Cyclopentyl-4-hydroxy-5-hydroxymethyl-5-(3-methyl-butyl)-2-oxo-1,2,5,6-tetrahydro-pyridin-3-yl]-1,1-dioxo-1,4-dihydro-1λ^6-benzo[1,2,4]thiadiazin-7-yl}-methanesulfonamide] | < 100
CC1(C)CN(C2CCCC2)C(=O)C(C2=NS(=O)(=O)c3cc(NS(C)(=O)=O)ccc3N2)=C1O [Example 18, N-[3-(1-Cyclopentyl-4-hydroxy-5,5-dimethyl-2-oxo-1,2,5,6-tetrahydro-pyridin-3-yl)-1,1-dioxo-1,4-dihydro-1λ^6-benzo[1,2,4]thiadiazin-7-yl]-methanesulfonamide] | 1000 to 4000
CC(C)CCN1C(=O)C(C2=NS(=O)(=O)c3cc(NS(C)(=O)=O)ccc3N2)=C(O)C[C@@H]1c1ccccc1 [Example 49, N-{3-[4-Hydroxy-1-(3-methyl-butyl)-2-oxo-6(R)-phenyl-1,2,5,6-tetrahydro-pyridin-3-yl]-1,1-dioxo-1,4-dihydro-1λ^6-benzo[1,2,4]thiadiazin-7-yl}-methanesulfonamide] | 100 to 1000
CC(C)CC1CC(O)=C(C2=NS(=O)(=O)c3cc(NS(C)(=O)=O)ccc3N2)C(=O)N1C1CCCC1 (centres unmarked) [Example 56, N-[3-(1-Cyclopentyl-4-hydroxy-6-isobutyl-2-oxo-1,2,5,6-tetrahydro-pyridin-3-yl)-1,1-dioxo-1,4-dihydro-1λ^6-benzo[1,2,4]thiadiazin-7-yl]-methanesulfonamide] | 1000 to 4000
CC#CCC1(C)CN(C2CCCC2)C(=O)C(C2=NS(=O)(=O)c3cc(NS(C)(=O)=O)ccc3N2)=C1O (centres unmarked) [Example 26, N-[3-(5-But-2-ynyl-1-cyclopentyl-4-hydroxy-5-methyl-2-oxo-1,2,5,6-tetrahydro-pyridin-3-yl)-1,1-dioxo-1,4-dihydro-1λ^6-benzo[1,2,4]thiadiazin-7-yl]-methanesulfonamide] | 100 to 1000
CC(C)CCC1CC(O)=C(C2=NS(=O)(=O)c3cc(NS(C)(=O)=O)ccc3N2)C(=O)N1C1CCCC1 (centres unmarked) [Example 53, N-{3-[1-Cyclopentyl-4-hydroxy-6-(3-methyl-butyl)-2-oxo-1,2,5,6-tetrahydro-pyridin-3-yl]-1,1-dioxo-1,4-dihydro-1λ^6-benzo[1,2,4]thiadiazin-7-yl}-methanesulfonamide] | 1000 to 4000
CC(C)=CCC1CN(C2CCCC2)C(=O)C(C2=NS(=O)(=O)c3cc(NS(C)(=O)=O)ccc3N2)=C1O (centres unmarked) [Example 22, N-{3-[1-Cyclopentyl-4-hydroxy-5-(3-methyl-but-2-enyl)-2-oxo-1,2,5,6-tetrahydro-pyridin-3-yl]-1,1-dioxo-1,4-dihydro-1λ^6-benzo[1,2,4]thiadiazin-7-yl}-methanesulfonamide] | < 100
CC(C)CCC1(C)C(O)=C(C2=NS(=O)(=O)c3cc(NS(C)(=O)=O)ccc3N2)C(=O)N2CCCC21 (centres unmarked) [Example 5, N-{3-[7-Hydroxy-8-methyl-8-(3-methyl-butyl)-5-oxo-1,2,3,5,8,8a-hexahydro-indolizin-6-yl]-1,1-dioxo-1,4-dihydro-1λ6-benzo[1,2,4]thiadiazin-7-yl}-methanesulfonamide] | < 100
CC(C)CCC1(C)CN(N2CCCC2)C(=O)C(C2=NS(=O)(=O)c3cc(NS(C)(=O)=O)ccc3N2)=C1O (centres unmarked) [Example 7, N-{3-[4-Hydroxy-5-methyl-5-(3-methyl-butyl)-2-oxo-1-pyrrolidin-1-yl-1,2,5,6-tetrahydro-pyridin-3-yl]-1,1-dioxo-1,4-dihydro-1λ^6-benzo[1,2,4]thiadiazin-7-yl}-methanesulfonamide] | < 100
CC(C)(C)CCN1CC(C)(C2CCCC2)C(O)=C(C2=NS(=O)(=O)c3cc(NS(C)(=O)=O)ccc3N2)C1=O (centres unmarked) [Example 30, N-{3-[5-Cyclopentyl-1-(3,3-dimethyl-butyl)-4-hydroxy-5-methyl-2-oxo-1,2,5,6-tetrahydro-pyridin-3-yl]-1,1-dioxo-1,4-dihydro-1λ^6-benzo[1,2,4]thiadiazin-7-yl}-methanesulfonamide] | < 100
CC(C)[C@H]1CC(O)=C(C2=NS(=O)(=O)c3cc(NS(C)(=O)=O)ccc3N2)C(=O)N1Cc1ccc(F)c(Cl)c1 [Example 55, N-{3-[1-(3-Chloro-4-fluoro-benzyl)-4-hydroxy-6(R)-isopropyl-2-oxo-1,2,5,6-tetrahydro-pyridin-3-yl]-1,1-dioxo-1,4-dihydro-1λ^6-benzo[1,2,4]thiadiazin-7-yl}-methanesulfonamide] | < 100
CC(C)CCC1(COCc2ccccc2)CN(C2CCCC2)C(=O)C(C2=NS(=O)(=O)c3cc(NS(C)(=O)=O)ccc3N2)=C1O (centres unmarked) [Example 58, N-{3-[5-Benzyloxymethyl-1-cyclopentyl-4-hydroxy-5-(3-methyl-butyl)-2-oxo-1,2,5,6-tetrahydro-pyridin-3-yl]-1,1-dioxo-1,4-dihydro-1λ^6-benzo[1,2,4]thiadiazin-7-yl}-methanesulfonamide] | 1000 to 4000

From patent US7834009B2, “4-hydroxy-5,6-dihydro-1H-pyridin-2-one compounds” (Anadys Pharmaceuticals, Inc., priority 2007, dated 2010)
